{"source": "patent US7722863B2", "about": "“Use of granzyme b as an hsp70/hsp70 peptide dependent inducer of apoptosis in tumor cells” (Multimmune GmbH, priority 2002, dated 2010)", "key": {"[1]": {"test_system": "Hsp70 membrane-positive tumor target cells", "settings": "Hsp70-protein 10 to 50 μg/ml; cited from earlier work"}, "[2]": {"test_system": "Hsp70 membrane-negative CX− cells", "assay": "Annexin V-FITC apoptosis assay (flow cytometry)", "assay_type": "cell-based, human", "settings": "for apoptosis in CX− cells: camptothecin 4 μg/ml or granzyme B 6 ng/ml; for amount of Annexin V-FITC positively stained CX− cells / fold increase of Annexin V-FITC positively stained CX− cells: camptothecin 4 μg/ml; for fold increase of Annexin V-FITC positively stained CX− cells: versus untreated", "procedure": "(§1) Exponentially growing tumor cells (day 1 after cell passage) were used for granzyme B, camptothecin treatment and as targets in cytotoxicity assays.\n(§2) Stock solutions of camptothecin (4 mg/ml, Sigma, Munich, Germany) were diluted in DMSO and stored at 4° C. in the dark. Granzyme B (6 ng/ml, Hölzel Diagnostics, Cologne, Germany) solutions were freshly prepared directly before usage. Exponentially growing cells (0.5-1.5×10^6/ml) were incubated either with camptothecin at a final concentration of 4 μg/ml or with purified, enzymatically active granzyme B (10 ng/ml, 1 μg/ml, 2 μg/ml; 4 μg/ml) (Shi et. al. (2000) Methods in Enzymology 322, 125) for 10 min, and 30 min either at 4° C. or at 37° C. After washing in RPMI-1640 medium binding and uptake was determined in nonpermeabilized and permeabilized tumor cells by flow cytometry and fluorescence microscopy on a Axioscop 25 scanning microscope (Zeiss, Jena, Germany) equipped with a 40× objective and standard filters. Images were treated by multiplicative shading correction using the software Axiovison (Zeiss Vison, Jena, Germany). Granzyme B was visualized in red by using the HC2-PE antibody.\n(§3) Apoptotic Cell Death was Determined after Incubation of Tumor Cells with 6 ng/ml Granzyme B for 4 h, 12 h, and 24 h at 37° C. and Washing in RPMI-1640 Medium by Different Apoptosis Assays, as Described Below. Apoptosis Assays\n(§4) Annexin V-FITC staining: Briefly, cells were washed twice in Hepes buffer containing 5 mM CaCl2 and incubated with Annexin V-FITC (Roche) for 10 min at room temperature. Annexin V-FITC positively stained cells were measured on a FACSCalibur flow cytometer (Becton Dickinson, Heidelberg, Germany).\n(§5) The preceding findings posed the question whether purified granzyme B can induce apoptosis of tumor cells that present Hsp70 on their cell surface. […] As a positive control for apoptosis all cell types were incubated with the topoisomerase inhibitor camptothecin at a concentration of 4 μg/ml. Apoptosis was determined by Annexin V-FITC staining measured by FACS (FACSCalibur, Becton Dickinson, Heidelberg, Germany), DAPI staining and mitochondrial cytochrome c release. Apoptosis was not detected in CX+ and CX− cells incubated with camptothecin (cam) or granzyme B (grB) for 4 h incubation (FIG. 3A). […] It appeared that the colon carcinoma sublines CX+/CX− are better protected towards a camptothecin-mediated cell death as compared to the pancreas carcinoma sublines Colo+/Colo−."}, "[3]": {"test_system": "Hsp70 membrane-negative Colo− cells", "assay": "Annexin V-FITC apoptosis assay (flow cytometry)", "assay_type": "cell-based, human", "settings": "12 h and 24 h; camptothecin 4 μg/ml or granzyme B 6 ng/ml", "procedure": "as §1, §2, §3, §4, §5"}, "[4]": {"test_system": "Hsp70 membrane-positive CX+ cells", "assay": "Annexin V-FITC apoptosis assay (flow cytometry)", "assay_type": "cell-based, human", "settings": "camptothecin 4 μg/ml or granzyme B 6 ng/ml; for fold increase of Annexin V-FITC positively stained CX+ cells: versus untreated", "procedure": "as §1, §2, §3, §4, §5"}, "[5]": {"test_system": "Hsp70 membrane-positive Colo+ cells", "assay": "Annexin V-FITC apoptosis assay (flow cytometry)", "assay_type": "cell-based, human", "settings": "12 h and 24 h; camptothecin 4 μg/ml", "procedure": "as §1, §2, §3, §4, §5"}, "CX+ tumor cells [6]": {"test_system": "CX+ tumor cells", "assay": "Cytochrome c release, quantitative immunoassay", "assay_type": "cell-based, human", "settings": "camptothecin 4 μg/ml or granzyme B 6 ng/ml, 24 h", "procedure": "(§6) Cytochrome c release: Cytochrome c release was determined using a quantitative immunoassay; (DCDCO, R&D Systems, Wiesbaden, Germany). Briefly, either untreated, camptothecin (4 μg/ml) or granzyme B (6 ng/ml) treated CX+ and CX− cells (1.5×10^6/ml) were washed in PBS and treated with lysis buffer for 1 h at room temperature. Following centrifugation at 1,000 g for 15 min supernatants were removed and 200 μl of a 1:100, 1:250, and a 1:500 dilution was used for a sandwich ELISA. Following incubation with substrate solution in the dark for 30 min the reaction was stopped. The optical density of each well was determined on an ELISA reader at 450 nm. The amount of cytochrome c was determined according to a calibration curve.\n(§7) As an additional test for apoptotic cell death, cytochrome c release was measured following incubation of CX+ and CX− cells with granzyme B for 24 h. As summarized in Table I, following incubation with granzyme B (6 ng/ml) for 24 h, cytochrome c concentration was elevated from 0.382 mg/ml to 0.690 mg/ml (1.8-fold) in CX+ cells. […] It was propose that the trigger of apoptosis by granzyme B is mediated via the extracellular exposed Hsp70 epitope TKD."}, "CX− tumor cells [7]": {"test_system": "CX− tumor cells", "assay": "Cytochrome c release, quantitative immunoassay", "assay_type": "cell-based, human", "settings": "camptothecin 4 μg/ml or granzyme B 6 ng/ml, 24 h", "procedure": "as §6, §7"}, "CX+ tumor cells [8]": {"test_system": "CX+ tumor cells", "assay": "DAPI staining of nuclear DNA fragmentation", "assay_type": "cell-based, human", "settings": "24 h, camptothecin 4 μg/ml or granzyme B 6 ng/ml", "procedure": "(§8) DAPI-staining: Methanol/aceton fixed cells (0.1×10^6 cells/100 μl) were incubated with 0.5 μg/μl 4,6-diamino-2-phenylindole (DAPI) in PBS/glycerol (3:1), for 15 min in the dark. Following washing in PBS the cells were mounted with Fluorescent Mounting Medium (Dako, Glostrup, Denmark) and than analysed for fluorescence using a Zeiss model Axioscop 2 scanning microscope (Zeiss Jena, Germany) equipped with a 40× objective and standard filters. Apoptosis was visualized with DAPI-staining in 50 cells, each. Images were treated by multiplicative shading correction using software Axiovision (Zeiss Vision Jena, Germany)."}, "CX− tumor cells [9]": {"test_system": "CX− tumor cells", "assay": "DAPI staining of nuclear DNA fragmentation", "assay_type": "cell-based, human", "settings": "24 h, camptothecin 4 μg/ml or granzyme B 6 ng/ml", "procedure": "as §8"}, "Colo+ tumor cells": {"test_system": "Colo+ tumor cells", "assay": "DAPI staining of nuclear DNA fragmentation", "assay_type": "cell-based, human", "settings": "24 h, camptothecin 4 μg/ml or granzyme B 6 ng/ml", "procedure": "as §8"}, "Colo− tumor cells": {"test_system": "Colo− tumor cells", "assay": "DAPI staining of nuclear DNA fragmentation", "assay_type": "cell-based, human", "settings": "24 h, camptothecin 4 μg/ml or granzyme B 6 ng/ml", "procedure": "as §8"}}}
{"compound": "Hsp70-protein: recombinant human Hsp70-protein (Stressgen)", "values": [{"measurement": "cytolytic activity of NK cells against Hsp70 membrane-positive tumor target cells", "setting": "[1]", "value": "increased cytolytic activity"}]}
{"compound": "CC[C@@]1(O)C(=O)OCc2c1cc1n(c2=O)Cc2cc3ccccc3nc2-1", "note": "[camptothecin, reference compound]", "values": [{"measurement": "apoptosis in CX− cells", "setting": "[2]; 4 h incubation", "value": "not detected"}, {"measurement": "amount of Annexin V-FITC positively stained CX− cells", "setting": "[2]; 12 h, untreated 12.1%", "value": 19.8, "unit": "%"}, {"measurement": "fold increase of Annexin V-FITC positively stained CX− cells", "setting": "[2]; 12 h", "value": 1.6, "unit": "fold"}, {"measurement": "apoptosis in CX− cells", "setting": "[2]; 12 h and 24 h", "value": "underwent apoptosis"}, {"measurement": "amount of Annexin V-FITC positively stained CX− cells", "setting": "[2]; 24 h, untreated 11.9%", "value": 25.1, "unit": "%"}, {"measurement": "fold increase of Annexin V-FITC positively stained CX− cells", "setting": "[2]; 24 h", "value": 2.1, "unit": "fold"}, {"measurement": "apoptosis in Colo− cells", "setting": "[3]", "value": "underwent apoptosis"}, {"measurement": "apoptosis in CX+ cells", "setting": "[4]; 4 h incubation", "value": "not detected"}, {"measurement": "amount of Annexin V-FITC positively stained CX+ cells", "setting": "[4]; 12 h, untreated 16.6%", "value": 28.0, "unit": "%"}, {"measurement": "fold increase of Annexin V-FITC positively stained CX+ cells", "setting": "[4]; 12 h", "value": 1.7, "unit": "fold"}, {"measurement": "apoptosis in CX+ cells", "setting": "[4]; 12 h and 24 h", "value": "underwent apoptosis"}, {"measurement": "amount of Annexin V-FITC positively stained CX+ cells", "setting": "[4]; 24 h, untreated 18%", "value": 39, "unit": "%"}, {"measurement": "fold increase of Annexin V-FITC positively stained CX+ cells", "setting": "[4]; 24 h", "value": 2.1, "unit": "fold"}, {"measurement": "apoptosis in Colo+ cells", "setting": "[5]", "value": "underwent apoptosis"}, {"measurement": "cytochrome c fold increase", "setting": "CX+ tumor cells [6]; control 1.0", "value": 1.5, "unit": "fold"}, {"measurement": "cytochrome c", "setting": "CX+ tumor cells [6]; mean of 4 experiments ± S.E., control 0.382 ± 0.02", "value": "0.555 ± 0.04", "unit": "mg/mL"}, {"measurement": "cytochrome c fold increase", "setting": "CX− tumor cells [7]; control 1.0", "value": 1.5, "unit": "fold"}, {"measurement": "cytochrome c", "setting": "CX− tumor cells [7]; mean of 4 experiments ± S.E., control 0.452 ± 0.02", "value": "0.672 ± 0.02", "unit": "mg/mL"}, {"measurement": "nuclear DNA fragmentation (DAPI)", "setting": "CX+ tumor cells [8]", "value": "exhibited nuclear fragmentation"}, {"measurement": "nuclear DNA fragmentation (DAPI)", "setting": "CX− tumor cells [9]", "value": "exhibited nuclear fragmentation"}, {"measurement": "nuclear DNA fragmentation (DAPI)", "setting": "Colo+ tumor cells", "value": "exhibited nuclear fragmentation"}, {"measurement": "nuclear DNA fragmentation (DAPI)", "setting": "Colo− tumor cells", "value": "exhibited nuclear fragmentation"}]}
